Reference: patent US6355799B1, “Substituted benzene compounds, process for their preparation, and herbicidal and defoliant compositions containing them” (ISK Americas Incorporated, priority 1997, dated 2002)

Legend:
Assay type in all cases: in vivo
[1] = tested on: field corn (Zea mays L., var. Dekalb 535, CORN); experiment: Pre-emerge test, crop safety; details: rating scale 0-100, 14 days after application
Method in brief: (§1)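 Applied at 15–1000 g ai/ha from acetone in 187 l/ha spray volume. Post-emergence applications included 0.25% v/v non-ionic surfactant and reached plants sown 8–21 days before. Pre-emergence applications were incorporated by surface watering. Efficacy or crop damage was rated on a 0–100 scale after 14 days.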

[2] = tested on: upland rice (Oryza sp., var. Tebonnet, RICE); experiment: Pre-emerge test, crop safety; details: rating scale 0-100, 14 days after application
Method in brief: as §1

[3] = tested on: green foxtail (Setaria viridis, SETVI); experiment: Pre-emerge test, greenhouse herbicide activity screening; details: rating scale 0-100, 14 days after application
Method in brief: (§2)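 Compounds in acetone were track-sprayed at 15-1000 g ai/ha (187 l/ha) on sandy loam pots: pre-emerge one day after seeding, post-emerge at 2-3 leaf stage with 0.25% v/v non-ionic surfactant. Phytotoxicity was rated 14 days later on a 0 (no damage) to 100 (complete death) scale.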

[4] = tested on: johnsongrass (Sorghum halepense, SORHA); experiment: as above; details: rating scale 0-100, 14 days after application
Method in brief: as §2

[5] = tested on: lambsquarters (Chenopodium album, CHEAL); experiment: as above; details: rating scale 0-100, 14 days after application
Method in brief: as §2

[6] = tested on: ivyleaf morningglory (Ipomoea hederacea, IPOHE); experiment: as above; details: rating scale 0-100, 14 days after application
Method in brief: as §2

[7] = tested on: large crabgrass (Digitaria sanguinalis, DIGSA); experiment: as above; details: rating scale 0-100, 14 days after application
Method in brief: as §2

[8] = tested on: sicklepod (Cassia obtusifolia, CASOB); experiment: as above; details: rating scale 0-100, 14 days after application
Method in brief: as §2

[9] = tested on: barnyardgrass (Echinochloa crus-galli, ECHCG); experiment: as above; details: rating scale 0-100, 14 days after application
Method in brief: as §2

[10] = tested on: velvetleaf (Abutilon theophrasti, ABUTH); experiment: as above; details: rating scale 0-100, 14 days after application
Method in brief: as §2

[11] = tested on: field corn (Zea mays L., var. Dekalb 535, CORN); experiment: Post-emerge test, crop safety; details: rating scale 0-100 (0 no damage, 100 complete death), 14 days after application
Method in brief: as §2

[12] = tested on: upland rice (Oryza sp., var. Tebonnet, RICE); experiment: Post-emerge test, crop safety; details: rating scale 0-100 (0 no damage, 100 complete death), 14 days after application
Method in brief: as §2

[13] = tested on: green foxtail (Setaria viridis, SETVI); experiment: Post-emerge test, greenhouse herbicide activity screening; details: rating scale 0-100 (0 no damage, 100 complete death), 14 days after application
Method in brief: (§3)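 Each test used a mechanized track sprayer delivering 187 l/ha of acetone solution at 15–1000 g ai/ha. Post-emerge foliage at 2–3 leaves was treated with added 0.25% v/v non-ionic surfactant and bottom-watered only. Injury was assessed on day 14, where 100 means total kill.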

[14] = tested on: johnsongrass (Sorghum halepense, SORHA); experiment: as above; details: rating scale 0-100 (0 no damage, 100 complete death), 14 days after application
Method in brief: as §3

[15] = tested on: lambsquarters (Chenopodium album, CHEAL); experiment: as above; details: rating scale 0-100 (0 no damage, 100 complete death), 14 days after application
Method in brief: as §3

[16] = tested on: ivyleaf morningglory (Ipomoea hederacea, IPOHE); experiment: as above; details: rating scale 0-100 (0 no damage, 100 complete death), 14 days after application
Method in brief: as §3

[17] = tested on: large crabgrass (Digitaria sanguinalis, DIGSA); experiment: as above; details: rating scale 0-100 (0 no damage, 100 complete death), 14 days after application
Method in brief: as §3

[18] = tested on: sicklepod (Cassia obtusifolia, CASOB); experiment: as above; details: rating scale 0-100 (0 no damage, 100 complete death), 14 days after application
Method in brief: as §3

[19] = tested on: barnyardgrass (Echinochloa crus-galli, ECHCG); experiment: as above; details: rating scale 0-100 (0 no damage, 100 complete death), 14 days after application
Method in brief: as §3

[20] = tested on: velvetleaf (Abutilon theophrasti, ABUTH); experiment: as above; details: rating scale 0-100 (0 no damage, 100 complete death), 14 days after application
Method in brief: as §3

[21] = tested on: redroot pigweed (Amaranthus retroflexus, AMARE); experiment: as above; details: rating scale 0-100 (0 no damage, 100 complete death), 14 days after application
Method in brief: as §3

[22] = tested on: redroot pigweed (Amaranthus retroflexus, AMARE); experiment: Pre-emerge test, greenhouse herbicide activity screening; details: rating scale 0-100, 14 days after application
Method in brief: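 Visual ratings on a 0-100 scale (0 no damage, 100 all plants dead) were taken at 14 days after treatment. Rates of 15-1000 g ai/ha in acetone, 187 l/ha, were sprayed onto soil one day after planting (pre-emerge) or onto 2-3 leaf plants with 0.25% v/v surfactant (post-emerge).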

## COc1c(Cl)cc(F)c(-n2c(=O)cc(C(F)(F)F)n(C)c2=O)c1CC(Cl)C(=O)OCCC(C)C (single isomer, unassigned) [14-16]
[1]; 63 g ai/ha
  Pre-emerge phytotoxicity rating, crop damage CORN: 0
[1]; 250 g ai/ha
  Pre-emerge phytotoxicity rating, crop damage CORN: 0
[2]; 63 g ai/ha
  Pre-emerge phytotoxicity rating, crop damage RICE: 0
[2]; 250 g ai/ha
  Pre-emerge phytotoxicity rating, crop damage RICE: 0
[3]; 63 g ai/ha
  Pre-emerge herbicidal activity, phytotoxicity rating SETVI: 0
[3]; 250 g ai/ha
  Pre-emerge herbicidal activity, phytotoxicity rating SETVI: 0
[4]; 63 g ai/ha
  Pre-emerge herbicidal activity, phytotoxicity rating SORHA: 0
[4]; 250 g ai/ha
  Pre-emerge herbicidal activity, phytotoxicity rating SORHA: 0
[5]; 63 g ai/ha
  Pre-emerge herbicidal activity, phytotoxicity rating CHEAL: 100
[5]; 250 g ai/ha
  Pre-emerge herbicidal activity, phytotoxicity rating CHEAL: 100
[6]; 63 g ai/ha
  Pre-emerge herbicidal activity, phytotoxicity rating IPOHE: 0
[6]; 250 g ai/ha
  Pre-emerge herbicidal activity, phytotoxicity rating IPOHE: 0
[7]; 63 g ai/ha
  Pre-emerge herbicidal activity, phytotoxicity rating DIGSA: 50
[7]; 250 g ai/ha
  Pre-emerge herbicidal activity, phytotoxicity rating DIGSA: 100
[8]; 63 g ai/ha
  Pre-emerge herbicidal activity, phytotoxicity rating CASOB: 0
[8]; 250 g ai/ha
  Pre-emerge herbicidal activity, phytotoxicity rating CASOB: 0
[9]; 63 g ai/ha
  Pre-emerge herbicidal activity, phytotoxicity rating ECHCG: 0
[9]; 250 g ai/ha
  Pre-emerge herbicidal activity, phytotoxicity rating ECHCG: 0
[10]; 63 g ai/ha
  Pre-emerge herbicidal activity, phytotoxicity rating ABUTH: 0
[10]; 250 g ai/ha
  Pre-emerge herbicidal activity, phytotoxicity rating ABUTH: 90
[11]; Rate 63 g ai/ha
  Post-emerge phytotoxicity rating CORN (crop damage): 0
[11]; Rate 250 g ai/ha
  Post-emerge phytotoxicity rating CORN (crop damage): 70
[12]; Rate 63 g ai/ha
  Post-emerge phytotoxicity rating RICE (crop damage): 0
[12]; Rate 250 g ai/ha
  Post-emerge phytotoxicity rating RICE (crop damage): 10
[13]; Rate 63 g ai/ha
  Post-emerge Herbicidal Activity, phytotoxicity rating SETVI: 0
[13]; Rate 250 g ai/ha
  Post-emerge Herbicidal Activity, phytotoxicity rating SETVI: 30
[14]; Rate 63 g ai/ha
  Post-emerge Herbicidal Activity, phytotoxicity rating SORHA: 0
[14]; Rate 250 g ai/ha
  Post-emerge Herbicidal Activity, phytotoxicity rating SORHA: 30
[15]; Rate 63 g ai/ha
  Post-emerge Herbicidal Activity, phytotoxicity rating CHEAL: 95
[15]; Rate 250 g ai/ha
  Post-emerge Herbicidal Activity, phytotoxicity rating CHEAL: 100
[16]; Rate 63 g ai/ha
  Post-emerge Herbicidal Activity, phytotoxicity rating IPOHE: 40
[16]; Rate 250 g ai/ha
  Post-emerge Herbicidal Activity, phytotoxicity rating IPOHE: 50
[17]; Rate 63 g ai/ha
  Post-emerge Herbicidal Activity, phytotoxicity rating DIGSA: 90
[17]; Rate 250 g ai/ha
  Post-emerge Herbicidal Activity, phytotoxicity rating DIGSA: 100
[18]; Rate 63 g ai/ha
  Post-emerge Herbicidal Activity, phytotoxicity rating CASOB: 20
[18]; Rate 250 g ai/ha
  Post-emerge Herbicidal Activity, phytotoxicity rating CASOB: 40
[19]; Rate 63 g ai/ha
  Post-emerge Herbicidal Activity, phytotoxicity rating ECHCG: 95
[19]; Rate 250 g ai/ha
  Post-emerge Herbicidal Activity, phytotoxicity rating ECHCG: 100
[20]; Rate 63 g ai/ha
  Post-emerge Herbicidal Activity, phytotoxicity rating ABUTH: 60
[20]; Rate 250 g ai/ha
  Post-emerge Herbicidal Activity, phytotoxicity rating ABUTH: 100
[21]; Rate 63 g ai/ha
  Post-emerge Herbicidal Activity, phytotoxicity rating AMARE: 60
[21]; Rate 250 g ai/ha
  Post-emerge Herbicidal Activity, phytotoxicity rating AMARE: 100
[22]; 63 g ai/ha
  Pre-emerge herbicidal activity, phytotoxicity rating AMARE: 100
[22]; 250 g ai/ha
  Pre-emerge herbicidal activity, phytotoxicity rating AMARE: 100
